Data taken from the supplement of paper PMC10307832.

How the values were obtained:
[1] = compound: C(C(=O)C(=O)O)Br [Bromopyruvate] + COc1cc2c(Oc3ccc(NC(=O)C4(C(=O)Nc5ccc(F)cc5)CC4)cc3F)ccnc2cc1OCCCN1CCOCC1 [Foretinib] (partner 0.25 µM); assay: relative viability (nuclei count vs DMSO), 5 days (fraction); higher = more cells survive
Outline: (§1)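 Lung cancer cell lines were seeded in 1536-well plates and dosed by pin tool the next day, with either a single drug or a fixed anchor-drug dose combined with five library-drug doses (not always all listed) spaced in √10 steps. Five days later, one step fixed the cells and stained their nuclei (final 0.05% Triton X-100, 1% formaldehyde, 1 ug/ml Hoechst), and nuclei were counted on 4× images. Relative viability is the nuclei count in treated wells divided by the count in vehicle wells, and each value is the median of duplicate plates.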

[2] = compound: CC(O)(CS(=O)(=O)c1ccc(F)cc1)C(=O)Nc1ccc(C#N)c(C(F)(F)F)c1 [Bicalutamide] + Cc1cc(Nc2cc(N3CCN(C)CC3)nc(Sc3ccc(NC(=O)C4CC4)cc3)n2)n[nH]1 [Tozasertib] (partner 0.1 µM); assay: as above
Outline: as §1

Cell Line | relative viability ([1]; first compound 1 µM) | relative viability ([1]; first compound 3.162 µM) | relative viability ([1]; first compound 10 µM) | relative viability ([1]; first compound 31.62 µM) | relative viability ([1]; first compound 100 µM) | relative viability ([2]; first compound 0.08 µM) | relative viability ([2]; first compound 0.253 µM) | relative viability ([2]; first compound 0.8 µM) | relative viability ([2]; first compound 2.53 µM)
NCI-H2342 | 1.09 | 1.18 | 1.01 | 0.853 | 1.04 | 0.496 | 0.564 | 0.5 | 0.456
LU99A | 0.834 | 0.81 | 0.812 | 0.773 | 0.846 | 0.279 | 0.238 | 0.297 | 0.226
SW 900 | 0.902 | 0.955 | 0.665 | 0.84 | 0.898 | 0.651 | 0.556 | 0.592 | 0.542
HCC-827 | 1.05 | 1.02 | 1.02 | 1.08 | 1.08 | 0.403 | 0.341 | 0.402 | 0.402
LK-2 | 0.865 | 1.35 | 1.57 | 1.12 | 0.894 | 0.19 | 0.178 | 0.152 | 0.179
HCC-366 | 0.927 | 0.976 | 0.961 | 0.759 | 0.963 | 0.133 | 0.0841 | 0.0976 | 0.0526
BEN | 0.975 | 0.668 | 0.542 | 0.741 | 0.591 | 0.475 | 0.533 | 0.527 | 0.487
NCI-H2347 | 0.925 | 1.01 | 1.22 | 0.721 | 0.982 | 0.625 | 0.511 | 0.597 | 0.504
NCI-H1395 | 0.975 | 0.838 | 1.14 | 1.03 | 1.01 | 0.829 | 0.736 | 0.827 | 0.696
201T | 1.15 | 1.08 | 1.29 | 1.21 | 1.29 | 1.01 | 0.917 | 0.962 | 0.793
NCI-H2170 | 0.961 | 1.01 | 1.07 | 0.995 | 0.966 | 0.728 | 0.696 | 0.716 | 0.739
NCI-H520 | 0.83 | 0.805 | 0.646 | 0.859 | 0.895 | 0.433 | 0.414 | 0.539 | 0.458
NCI-H727 | 0.9 | 1.08 | 0.728 | 0.93 | 0.802 | 0.615 | 0.619 | 0.591 | 0.603
HCC-15 | 1 | 1.05 | 1.07 | 1.08 | 1.02 | 0.428 | 0.394 | 0.365 | 0.228
ABC-1 | 1.09 | 0.941 | 1.14 | 0.833 | 0.95 | 0.179 | 0.168 | 0.17 | 0.167
LCLC-103H | 0.568 | 0.748 | 0.97 | 0.797 | 1.02 | 0.546 | 0.412 | 0.468 | 0.411
NCI-H460 | 0.928 | 1.01 | 1.15 | 1.02 | 1 | 0.521 | 0.39 | 0.434 | 0.52
EPLC-272H | 0.777 | 0.718 | 0.81 | 0.688 | 0.888 | 0.238 | 0.224 | 0.25 | 0.237
